These results are taken from patent US20050282824A1, “Substituted pyrimidines as inhibitors of bacterial type III protein secretion systems” (priority 2004, published 2005).

Test [1] deals with SPI1 type III protein secretion of SipB by S. enterica. Put plainly: Secondary assay: Type III-dependent protein secretion of the SipB polypeptide by S. enterica. Type of test: cell-based. To be noted: Salmonella enterica, read-out: SipB IC50(uM). The method, then: Secondary assay: Type III-dependent protein secretion of the SipB polypeptide by S. enterica. The SipB protein of S. enterica is another effector of the SPI1 type III protein secretion system from S. enterica. In this cell-based procedure, the Type III-dependent secretion of SipB from the bacterial cytoplasm to the extracellular medium was measured through its reactivity with a cognate mouse monoclonal.
Salmonella enterica cells growing either in the presence or in the absence of inhibitors are induced for the production of SipB. Following an established period of growth the cells are sedimented and the amount of SipB present in the supernatant is quantified with a scanning imager following application of immunoblot techniques. Detection may employ an anti-SipB mouse monoclonal antibody (e.g., obtained from Jorge Galan, SUNY at Stony Brook, N.Y.) followed by treatment with commercially available sheep anti-mouse polyclonal antibody conjugated with horseradish peroxidase. Thereafter the membrane is treated with a peroxidase chemiluminescent substrate and exposed to film for an appropriate exposure time. Inhibition may be measured relative to untreated controls.

Test [2] deals with SPI1 type III protein secretion of SopE'-'Bla by Salmonella enterica. Put plainly: Primary assay: Type III protein secretion of the chimeric SopE'-'Bla polypeptide by Salmonella enterica. Type of test: cell-based. The conditions noted are these: read-out: SopE IC50(uM). The source says:
Primary assay: Type III protein secretion of the chimeric SopE′-′Bla polypeptide by Salmonella enterica. This procedure is a cell-based assay that measures the type III-dependent secretion by Salmonella enterica of a plasmid-encoded chimeric polypeptide whose synthesis can be regulated, and which is endowed with an enzymatic activity that can be monitored […] by hydrolysis of a substrate that is unable to penetrate into the bacterial cytoplasm within the time constraints of the reaction. Thus, the colorimetric reaction is not influenced by SopE′-′Bla polypeptide in the bacterial cytoplasm. Instead, it effectively measures the amount of polypeptide that has been secreted from the S. enterica cytoplasm to the extracellular medium via type III system protein secretion.
The SopE′-′Bla recombinant polypeptide consists of two functionally distinct domains spliced together. The N-terminus domain is encoded by a polynucleotide region specifying the signal for type III secretion of the SopE polypeptide of S. enterica, an effector of the SPI1 type III protein secretion system. The C-terminus domain of SopE′-′Bla consists of a 263 amino acid peptide sequence that corresponds to the TEM-1 β-lactamase expressed by plasmid pBR322 but without its N-terminal signal sequence. The TEM-1 β-lactamase part of the SopE′-′Bla chimeric polypeptide is used as a reporter enzyme. It is capable of hydrolyzing nitrocefin resulting in a product whose accumulation can be monitored by colorimetric detection. The secretion of the SopE′-′Bla chimeric polypeptide from the cytoplasm to the extracellular medium is dependent on type III protein secretion.
For this procedure, cells grown under conditions known to favor a functional SPI1 secretion system are induced for expression of the SopE′-′Bla protein and grown either in the presence or in the absence of putative inhibitors for determined time. Nitrocefin is then added to the various cultures and its hydrolysis are used for quantitation. An inhibitor of Type III protein secretion is generally a compound that reduces the signal of the enzymatic reaction by decreasing the amount of SopE′-′Bla secreted into the extracellular medium.

In general, IC50 refers to the midpoint of a concentration-inhibition curve. On to `O=C(N[C@H](Cc1ccc(Cl)cc1)C(=O)O)c1cc(N2CCc3ccccc3C2)nc(-c2cccc(C(F)(F)F)c2)n1` [Compound 7, (R)-3-(4-Chlorophenyl)-2-{[6-(3,4-dihydro-1H-isoquinolin-2-yl)-2-(3-trifluoromethylphenyl)pyrimidine-4-carbonyl]amino}propionic acid], for which the figures for the IC50 in test [1] and in test [2] were above 100 µM and 1.2 µM, respectively.
On to `O=C(N[C@H](Cc1ccc(Cl)cc1)C(=O)O)c1cc(N2CCc3ccccc3C2)nc(-c2ccc(C(F)(F)F)cc2)n1` [Compound 8, (R)-3-(4-Chlorophenyl)-2-{[6-(3,4-dihydro-1H-isoquinolin-2-yl)-2-(4-trifluoromethylphenyl)pyrimidine-4-carbonyl]amino}propionic acid], for which the IC50 in test [1] is above 100 µM; in test [2] it was 2 µM.
With `N#Cc1ccc(-c2nc(C(=O)N[C@H](Cc3ccc(Cl)cc3)C(=O)O)cc(N3CCc4ccccc4C3)n2)cc1` [Compound 10, (R)-3-(4-Chlorophenyl)-2-{[2-(4-cyanophenyl)-6-(3,4-dihydro-1H-isoquinolin-2-yl)pyrimidine-4-carbonyl]amino}propionic acid], the IC50 was above 100 µM in test [1] and 4.3 µM in test [2].
Taken in the same sequence, the figures for `O=C(N[C@@H](CSCc1ccccc1)C(=O)O)c1cc(N2CCN(c3ccccc3)CC2)nc(-c2ccc(Cl)c(Cl)c2)n1` [Compound 20, (R)-3-Benzylsulfanyl-2-{[2-(3,4-dichlorophenyl)-6-(4-phenyl-piperazin-1-yl)-pyrimidine-4-carbonyl]amino}propionic acid] were above 100 µM and 2.1 µM.
Taken in the same sequence, the figures for `O=C(N[C@@H](COCc1ccccc1)C(=O)O)c1cc(N2CCCCC2)nc(N2CCC(c3ccccc3)CC2)n1` [Compound 28, (S)-3-Benzyloxy-2-{[2-(4-phenylpiperidin-1-yl)-6-piperidin-1-yl-pyrimidine-4-carbonyl]amino}propionic acid] were 18.5 µM and 5.2 µM.
In the case of `CC1CCN(c2cc(C(=O)N[C@@H](CSCc3ccccc3)C(=O)O)nc(-c3ccc(Oc4ccccc4)cc3)n2)CC1` [Compound 37, (R)-3-Benzylsulfanyl-2-{[6-(4-methylpiperidin-1-yl)-2-(4-phenoxyphenyl)-pyrimidine-4-carbonyl]amino}propionic acid], the concentration for half-maximal inhibition (IC50) in test [1] was above 100 µM; in test [2], 1.7 µM.
Taken in the same sequence, the figures for `CN1CCN(c2nc(C(=O)N[C@@H](CSCc3ccccc3)C(=O)O)cc(N3CCN(c4nccc(C(F)(F)F)n4)CC3)n2)CC1` [Compound 44, (R)-3-Benzylsulfanyl-2-({2-(4-methyl-piperazin-1-yl)-6-[4-(4-trifluoromethyl-pyrimidin-2-yl)piperazin-1-yl]pyrimidine-4-carbonyl}amino)propionic acid] were above 100 µM and 85 µM.
Taken in the same sequence, the figures for `CC1CCN(c2nc(C(=O)N[C@@H](CSCc3ccccc3)C(=O)O)cc(N3CCN(c4nccc(C(F)(F)F)n4)CC3)n2)CC1` [Compound 46, (R)-3-Benzylsulfanyl-2-({2-(4-methylpiperidin-1-yl)-6-[4-(4-trifluoromethyl-pyrimidin-2-yl)piperazin-1-yl]pyrimidine-4-carbonyl}amino)propionic acid] were 10.6 µM and 3.4 µM.
`CN(C)c1ccc(-c2nc(C(=O)N[C@@H](CSCc3ccccc3)C(=O)O)cc(N3CCN(c4nccc(C(F)(F)F)n4)CC3)n2)cc1` [Compound 50, (R)-3-Benzylsulfanyl-2-({2-(4-dimethylaminophenyl)-6-[4-(4-trifluoromethyl-pyrimidin-2-yl)piperazin-1-yl]pyrimidine-4-carbonyl}amino)propionic acid]: the results for the IC50 in test [1] and in test [2] were above 100 µM and 20.1 µM, respectively.
Taken in the same sequence, the figures for `O=C(N[C@@H](CSCc1ccccc1)C(=O)O)c1cc(N2CCN(c3nccc(C(F)(F)F)n3)CC2)nc(-c2ccc([N+](=O)[O-])cc2)n1` [Compound 52, (R)-3-Benzylsulfanyl-2-({2-(4-nitrophenyl)-6-[4-(4-trifluoromethylpyrimidin-2-yl)-piperazin-1-yl]pyrimidine-4-carbonyl}amino)propionic acid] were 15 µM and 10.4 µM.
Taken in the same sequence, the figures for `O=C(N[C@@H](COCc1ccccc1)C(=O)O)c1cc(N2CCN(c3nccc(C(F)(F)F)n3)CC2)nc(-c2ccc(F)cc2)n1` [Compound 54, (S)-3-Benzyloxy-2-({2-(4-fluorophenyl)-6-[4-(4-trifluoromethylpyrimidin-2-yl)-piperazin-1-yl]pyrimidine-4-carbonyl}amino)propionic acid] were 2.7 µM and 1.3 µM.
Taken in the same sequence, the figures for `O=C(N[C@@H](CSCc1ccccc1)C(=O)O)c1cc(N2CCN(c3nccc(C(F)(F)F)n3)CC2)nc(-c2ccc(F)cc2)n1` [Compound 55, (R)-3-Benzylsulfanyl-2-({2-(4-fluorophenyl)-6-[4-(4-trifluoromethylpyrimidin-2-yl)-piperazin-1-yl]pyrimidine-4-carbonyl}amino)propionic acid] were 20.5 µM and 2.4 µM.
Turning to `O=C(N[C@@H](COCc1ccccc1)C(=O)O)c1cc(N2CCN(c3nccc(C(F)(F)F)n3)CC2)nc(-c2cccs2)n1` [Compound 57, (S)-3-Benzyloxy-2-({2-thiophen-2-yl-6-[4-(4-trifluoromethylpyrimidin-2-yl)-piperazin-1-yl]pyrimidine-4-carbonyl}amino)propionic acid], the results for the IC50 in test [1] and in test [2] were 13.3 µM and 28.7 µM, respectively.
Taken in the same sequence, the figures for `O=C(N[C@@H](CSCc1ccccc1)C(=O)O)c1cc(N2CCN(c3nccc(C(F)(F)F)n3)CC2)nc(-c2cccs2)n1` [Compound 58, (R)-3-Benzylsulfanyl-2-({2-thiophen-2-yl-6-[4-(4-trifluoromethylpyrimidin-2-yl)-piperazin-1-yl]pyrimidine-4-carbonyl}amino)propionic acid] were 10.6 µM and 4.5 µM.
Taken in the same sequence, the figures for `O=C(NC(Cc1ccc(Cl)cc1)C(=O)O)c1cc(N2CCN(c3nccc(C(F)(F)F)n3)CC2)nc(-c2cccs2)n1` (stereo not shown) [Compound 59, 3-(4-Chlorophenyl)-2-({2-thiophen-2-yl-6-[4-(4-trifluoromethylpyrimidin-2-yl)-piperazin-1-yl]pyrimidine-4-carbonyl}amino)propionic acid] were 17.1 µM and 1.8 µM.
Taken in the same sequence, the figures for `O=C(NC(Cc1ccc(Cl)cc1)C(=O)O)c1cc(N2CCN(c3nccc(C(F)(F)F)n3)CC2)nc(-c2ccoc2)n1` (stereo not shown) [Compound 62, 3-(4-Chlorophenyl)-2-({2-furan-3-yl-6-[4-(4-trifluoromethylpyrimidin-2-yl)-piperazin-1-yl]pyrimidine-4-carbonyl}amino)propionic acid] were 12.6 µM and 5.4 µM.
On to `C=C(NC(=O)c1cc(N2CCN(c3nccc(C(F)(F)F)n3)CC2)nc(-c2ccoc2)n1)C(=O)O` [Compound 63, 2-({2-Furan-3-yl-6-[4-(4-trifluoromethylpyrimidin-2-yl)piperazin-1-yl]pyrimidine-4-carbonyl}amino)acrylic acid], for which the values for the IC50 in test [1] and in test [2] were above 100 µM and 21.4 µM, respectively.
